Laboratory results taken from ChEMBL document CHEMBL1201862, “PubChem BioAssay data set” (2004).
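Method: 48-hour compound exposure of cells in 96-well plates, five concentrations, linear interpolation of endpoints. GI50: concentration for 50% inhibition of growth.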 Activity calls are given as the source filed them. Rule as the data show it: active = GI50 up to about 1.1 µM and inactive = higher.

Legend:
Experiment in all cases: NCI anticancer screen, dose series, 48 h
786-0 = test system: 786-0
A498 = test system: A498
A549 = test system: A549
CAKI-1 = test system: CAKI-1
CCRF-CEM = test system: CCRF-CEM
COLO 205 = test system: COLO 205
DLD-1 = test system: DLD-1
DMS-114 = test system: DMS-114
DMS-273 = test system: DMS-273
EKVX = test system: EKVX
HCC 2998 = test system: HCC 2998
HCT-116 = test system: HCT-116
HCT-15 = test system: HCT-15
HL-60 = test system: HL-60
HOP-18 = test system: HOP-18
HOP-62 = test system: HOP-62
HOP-92 = test system: HOP-92
HT-29 = test system: HT-29
IGROV-1 = test system: IGROV-1
K562 = test system: K562
KM-20L2 = test system: KM-20L2
KM12 = test system: KM12
LOX IMVI = test system: LOX IMVI
LXFL 529 = test system: LXFL 529
M14 = test system: M14
M19-MEL = test system: M19-MEL
MOLT-4 = test system: MOLT-4
Malme-3M = test system: Malme-3M
NCI-H226 = test system: NCI-H226
NCI-H23 = test system: NCI-H23
NCI-H460 = test system: NCI-H460
NCI-H522 = test system: NCI-H522
OVCAR-3 = test system: OVCAR-3
OVCAR-4 = test system: OVCAR-4
OVCAR-5 = test system: OVCAR-5
OVCAR-8 = test system: OVCAR-8
RPMI-8226 = test system: RPMI-8226
RXF 393 = test system: RXF 393
RXF 631 = test system: RXF 631
SF-268 = test system: SF-268
SF-295 = test system: SF-295
SF-539 = test system: SF-539
SK-MEL-2 = test system: SK-MEL-2
SK-MEL-5 = test system: SK-MEL-5
SK-OV-3 = test system: SK-OV-3
SN12C = test system: SN12C
SNB-19 = test system: SNB-19
SNB-75 = test system: SNB-75
SNB-78 = test system: SNB-78
SW-620 = test system: SW-620
TK-10 = test system: TK-10
U-251 = test system: U-251
UACC-257 = test system: UACC-257
UACC-62 = test system: UACC-62
UO-31 = test system: UO-31
XF498 = test system: XF498
ACHN = test system: ACHN
SK-MEL-28 = test system: SK-MEL-28
SR = test system: SR

COC(=O)CCC1=NOC(CC2CC(CCC(=O)OC)=NO2)C1 (stereo not given) was tested. Which GI50 (786-0) did it give?
Its GI50 is > 100 µM (inactive).

And the GI50 (A498)?
The GI50 was > 100 µM (inactive).

And the GI50 (A549)?
The GI50 was > 100 µM (inactive).

And the GI50 (CAKI-1)?
The GI50 was > 100 µM (inactive).

What about the GI50 (CCRF-CEM) of the same compound?
The GI50 was > 100 µM (inactive).

And the GI50 (COLO 205)?
Its GI50 is > 100 µM (inactive).

What about the GI50 (DLD-1) of the same compound?
Its GI50 is > 100 µM (inactive).

What about the GI50 (DMS-114) of the same compound?
The GI50 was > 100 µM (inactive).

And the GI50 (DMS-273)?
The GI50 was > 100 µM (inactive).

What about the GI50 (EKVX) of the same compound?
The GI50 was > 100 µM (inactive).

And the GI50 (HCC 2998)?
The GI50 was > 100 µM (inactive).

What about the GI50 (HCT-116) of the same compound?
The GI50 was > 100 µM (inactive).

And the GI50 (HCT-15)?
The GI50 was greater than 100 µM.

What about the GI50 (HL-60) of the same compound?
Its GI50 is > 100 µM (inactive).

And the GI50 (HOP-18)?
Its GI50 is > 100 µM (inactive).

And the GI50 (HOP-62)?
Its GI50 is > 100 µM (inactive).

What about the GI50 (HOP-92) of the same compound?
Its GI50 is > 100 µM (inactive).

What about the GI50 (HT-29) of the same compound?
The GI50 was > 100 µM (inactive).

What about the GI50 (IGROV-1) of the same compound?
Its GI50 is > 100 µM (inactive).

What about the GI50 (K562) of the same compound?
Its GI50 is > 100 µM (inactive).

And the GI50 (KM-20L2)?
The GI50 was > 100 µM (inactive).

What about the GI50 (KM12) of the same compound?
Its GI50 is > 100 µM (inactive).

What about the GI50 (LOX IMVI) of the same compound?
The GI50 was > 100 µM (inactive).

And the GI50 (LXFL 529)?
Its GI50 is > 100 µM (inactive).

And the GI50 (M14)?
Its GI50 is > 100 µM (inactive).

And the GI50 (M19-MEL)?
Its GI50 is > 100 µM (inactive).

What about the GI50 (MOLT-4) of the same compound?
The GI50 was > 100 µM (inactive).

What about the GI50 (Malme-3M) of the same compound?
Its GI50 is > 100 µM (inactive).

What about the GI50 (NCI-H226) of the same compound?
Its GI50 is > 100 µM (inactive).

And the GI50 (NCI-H23)?
The GI50 was > 100 µM (inactive).

What about the GI50 (NCI-H460) of the same compound?
The GI50 was > 100 µM (inactive).

What about the GI50 (NCI-H522) of the same compound?
Its GI50 is > 100 µM (inactive).

What about the GI50 (OVCAR-3) of the same compound?
Its GI50 is > 100 µM (inactive).

And the GI50 (OVCAR-4)?
The GI50 was > 100 µM (inactive).

And the GI50 (OVCAR-5)?
Its GI50 is > 100 µM (inactive).

And the GI50 (OVCAR-8)?
Its GI50 is > 100 µM (inactive).

And the GI50 (RPMI-8226)?
Its GI50 is > 100 µM (inactive).

What about the GI50 (RXF 393) of the same compound?
Its GI50 is > 100 µM (inactive).

What about the GI50 (RXF 631) of the same compound?
Its GI50 is > 100 µM (inactive).

What about the GI50 (SF-268) of the same compound?
Its GI50 is > 100 µM (inactive).

What about the GI50 (SF-295) of the same compound?
Its GI50 is > 100 µM (inactive).

What about the GI50 (SF-539) of the same compound?
The GI50 was > 100 µM (inactive).

What about the GI50 (SK-MEL-2) of the same compound?
The GI50 was > 100 µM (inactive).

And the GI50 (SK-MEL-5)?
The GI50 was > 100 µM (inactive).

What about the GI50 (SK-OV-3) of the same compound?
Its GI50 is > 100 µM (inactive).

And the GI50 (SN12C)?
The GI50 was > 100 µM (inactive).

What about the GI50 (SNB-19) of the same compound?
The GI50 was > 100 µM (inactive).

And the GI50 (SNB-75)?
The GI50 was > 100 µM (inactive).

What about the GI50 (SNB-78) of the same compound?
The GI50 was > 100 µM (inactive).

And the GI50 (SW-620)?
The GI50 was > 100 µM (inactive).

And the GI50 (TK-10)?
The GI50 was > 100 µM (inactive).

And the GI50 (U-251)?
The GI50 was > 100 µM (inactive).

And the GI50 (UACC-257)?
Its GI50 is > 100 µM (inactive).

What about the GI50 (UACC-62) of the same compound?
Its GI50 is > 100 µM (inactive).

And the GI50 (UO-31)?
Its GI50 is > 100 µM (inactive).

What about the GI50 (XF498) of the same compound?
Its GI50 is > 100 µM (inactive).

With Cc1cc(N(CCC#N)CCC#N)ccc1/C(Sc1ccccc1)=C(\NC(=O)/C=C/c1ccccc1)C(=O)Sc1ccccc1 as the compound, how does the GI50 (786-0) read?
Its GI50 is 2.28 µM (inactive).

And the GI50 (A498)?
Its GI50 is 4.06 µM (inactive).

And the GI50 (A549)?
The GI50 was 2.02 µM (inactive).

And the GI50 (ACHN)?
Its GI50 is 4.75 µM (inactive).

And the GI50 (CAKI-1)?
Its GI50 is 2.05 µM (inactive).

What about the GI50 (CCRF-CEM) of the same compound?
Its GI50 is 0.271 µM (active).

And the GI50 (COLO 205)?
Its GI50 is 2.55 µM (inactive).

What about the GI50 (DLD-1) of the same compound?
Its GI50 is 1.73 µM (inactive).

What about the GI50 (DMS-114) of the same compound?
Its GI50 is 1.54 µM (inactive).

What about the GI50 (DMS-273) of the same compound?
The GI50 was 6.44 µM (inactive).

And the GI50 (EKVX)?
Its GI50 is 6.18 µM (inactive).

And the GI50 (HCC 2998)?
The GI50 was 11.4 µM (inactive).

What about the GI50 (HCT-116) of the same compound?
The GI50 was 2.17 µM (inactive).

And the GI50 (HCT-15)?
The GI50 was 3.73 µM.

What about the GI50 (HL-60) of the same compound?
Its GI50 is 0.628 µM (active).

And the GI50 (HOP-18)?
The GI50 was 14 µM (inactive).

And the GI50 (HOP-62)?
Its GI50 is 2.56 µM (inactive).

What about the GI50 (HOP-92) of the same compound?
The GI50 was 2.92 µM (inactive).

And the GI50 (HT-29)?
Its GI50 is 2.91 µM (inactive).

And the GI50 (IGROV-1)?
The GI50 was 0.805 µM (active).

What about the GI50 (K562) of the same compound?
The GI50 was 2.41 µM (inactive).

And the GI50 (KM-20L2)?
The GI50 was 2.14 µM (inactive).

And the GI50 (KM12)?
The GI50 was 3.14 µM (inactive).

And the GI50 (LOX IMVI)?
Its GI50 is 0.83 µM (active).

What about the GI50 (LXFL 529) of the same compound?
The GI50 was 1.57 µM (inactive).

And the GI50 (M14)?
The GI50 was 1.82 µM (inactive).

And the GI50 (M19-MEL)?
Its GI50 is 3.22 µM (inactive).

And the GI50 (MOLT-4)?
Its GI50 is 0.557 µM (active).

And the GI50 (Malme-3M)?
Its GI50 is 8.28 µM (inactive).

What about the GI50 (NCI-H226) of the same compound?
The GI50 was 2.56 µM (inactive).

And the GI50 (NCI-H23)?
The GI50 was 2.22 µM (inactive).

What about the GI50 (NCI-H460) of the same compound?
Its GI50 is 7.01 µM (inactive).

And the GI50 (NCI-H522)?
The GI50 was 0.587 µM (active).

And the GI50 (OVCAR-3)?
Its GI50 is 2.92 µM (inactive).

What about the GI50 (OVCAR-4) of the same compound?
Its GI50 is 3.06 µM (inactive).

What about the GI50 (OVCAR-5) of the same compound?
The GI50 was 5.45 µM (inactive).

And the GI50 (OVCAR-8)?
The GI50 was 2.94 µM (inactive).

What about the GI50 (RPMI-8226) of the same compound?
Its GI50 is 0.991 µM (active).

What about the GI50 (RXF 393) of the same compound?
Its GI50 is 1.56 µM (inactive).

And the GI50 (RXF 631)?
Its GI50 is 2.79 µM (inactive).

What about the GI50 (SF-268) of the same compound?
Its GI50 is 0.565 µM (active).

What about the GI50 (SF-295) of the same compound?
Its GI50 is 3.17 µM (inactive).

What about the GI50 (SF-539) of the same compound?
Its GI50 is 1.47 µM (inactive).

What about the GI50 (SK-MEL-28) of the same compound?
Its GI50 is 4.99 µM (inactive).

What about the GI50 (SK-MEL-2) of the same compound?
The GI50 was 3.42 µM (inactive).

What about the GI50 (SK-MEL-5) of the same compound?
The GI50 was 2.77 µM (inactive).

And the GI50 (SK-OV-3)?
Its GI50 is 5.55 µM (inactive).

What about the GI50 (SN12C) of the same compound?
The GI50 was 1.7 µM (inactive).

What about the GI50 (SNB-19) of the same compound?
Its GI50 is 9.84 µM (inactive).

What about the GI50 (SNB-75) of the same compound?
Its GI50 is 2.13 µM (inactive).

And the GI50 (SNB-78)?
Its GI50 is 3.33 µM (inactive).

And the GI50 (SR)?
Its GI50 is 0.665 µM (active).

What about the GI50 (SW-620) of the same compound?
The GI50 was 4.12 µM (inactive).

And the GI50 (TK-10)?
Its GI50 is 5.35 µM (inactive).

And the GI50 (U-251)?
Its GI50 is 0.82 µM (active).

And the GI50 (UACC-257)?
The GI50 was 5.53 µM (inactive).

What about the GI50 (UACC-62) of the same compound?
Its GI50 is 2.82 µM (inactive).

And the GI50 (UO-31)?
The GI50 was 0.731 µM (active).

And the GI50 (XF498)?
The GI50 was 12 µM (inactive).
